According to ChEMBL document CHEMBL5465560, “Selectivity Literature for EUbOPEN Chemogenomic Library” (2024):

Legend:
[1] = molecular target: Tyrosine-protein kinase BTK (Homo sapiens, UniProt Q06187); assay: Selectivity interaction (ActivX KiNativ screen (kinase selectivity in THP-1 cell lysates)) EUB0000639a BTK; type: subcellular; conditions: lysate, at 0.01 µM
[2] = molecular target: T1, Serine/threonine-protein kinase TBK1 (Homo sapiens) (UniProt Q9UHD2); assay: Selectivity interaction (ActivX KiNativ screen (kinase selectivity in THP-1 cell lysates)) EUB0000639a TBK1; type: subcellular; conditions: lysate
T1 sequence (whole entry): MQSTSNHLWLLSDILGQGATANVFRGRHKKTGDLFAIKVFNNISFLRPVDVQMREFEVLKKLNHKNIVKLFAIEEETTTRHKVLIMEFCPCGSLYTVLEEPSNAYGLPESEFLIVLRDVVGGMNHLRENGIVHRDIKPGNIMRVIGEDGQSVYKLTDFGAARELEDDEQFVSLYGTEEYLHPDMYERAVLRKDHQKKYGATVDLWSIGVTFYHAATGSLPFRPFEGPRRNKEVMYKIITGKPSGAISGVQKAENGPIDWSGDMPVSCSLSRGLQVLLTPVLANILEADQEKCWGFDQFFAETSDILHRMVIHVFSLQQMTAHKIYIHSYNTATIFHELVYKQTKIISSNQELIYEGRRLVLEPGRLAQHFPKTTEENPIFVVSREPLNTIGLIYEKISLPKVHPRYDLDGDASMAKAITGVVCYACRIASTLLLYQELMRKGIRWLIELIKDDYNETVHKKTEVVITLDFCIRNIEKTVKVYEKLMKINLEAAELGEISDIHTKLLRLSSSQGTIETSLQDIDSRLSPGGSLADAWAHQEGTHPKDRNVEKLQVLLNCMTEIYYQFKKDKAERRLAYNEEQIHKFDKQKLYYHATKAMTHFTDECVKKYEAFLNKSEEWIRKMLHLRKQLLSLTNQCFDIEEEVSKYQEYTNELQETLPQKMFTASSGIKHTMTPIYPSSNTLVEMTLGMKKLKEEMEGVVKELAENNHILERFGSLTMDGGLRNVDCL

[3] = molecular target: T2, Dual specificity mitogen-activated protein kinase kinase 5 (Homo sapiens) (UniProt Q13163); conditions: at 10 µM
T2 sequence (whole entry): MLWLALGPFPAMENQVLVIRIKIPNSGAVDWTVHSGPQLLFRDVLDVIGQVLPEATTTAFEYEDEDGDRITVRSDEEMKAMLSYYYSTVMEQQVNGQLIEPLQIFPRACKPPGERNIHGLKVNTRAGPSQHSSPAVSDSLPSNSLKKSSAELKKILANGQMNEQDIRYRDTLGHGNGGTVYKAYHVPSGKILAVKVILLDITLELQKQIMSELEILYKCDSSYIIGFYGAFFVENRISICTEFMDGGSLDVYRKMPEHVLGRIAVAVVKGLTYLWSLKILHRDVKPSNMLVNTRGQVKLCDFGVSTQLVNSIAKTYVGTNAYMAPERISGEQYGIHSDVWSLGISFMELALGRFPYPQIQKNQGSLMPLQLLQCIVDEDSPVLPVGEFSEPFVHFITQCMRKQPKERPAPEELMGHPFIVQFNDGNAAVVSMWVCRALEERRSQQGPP

[4] = molecular target: T3, Tyrosine-protein kinase Mer (Homo sapiens) (UniProt Q12866); conditions: at 10 µM
T3 sequence (whole entry): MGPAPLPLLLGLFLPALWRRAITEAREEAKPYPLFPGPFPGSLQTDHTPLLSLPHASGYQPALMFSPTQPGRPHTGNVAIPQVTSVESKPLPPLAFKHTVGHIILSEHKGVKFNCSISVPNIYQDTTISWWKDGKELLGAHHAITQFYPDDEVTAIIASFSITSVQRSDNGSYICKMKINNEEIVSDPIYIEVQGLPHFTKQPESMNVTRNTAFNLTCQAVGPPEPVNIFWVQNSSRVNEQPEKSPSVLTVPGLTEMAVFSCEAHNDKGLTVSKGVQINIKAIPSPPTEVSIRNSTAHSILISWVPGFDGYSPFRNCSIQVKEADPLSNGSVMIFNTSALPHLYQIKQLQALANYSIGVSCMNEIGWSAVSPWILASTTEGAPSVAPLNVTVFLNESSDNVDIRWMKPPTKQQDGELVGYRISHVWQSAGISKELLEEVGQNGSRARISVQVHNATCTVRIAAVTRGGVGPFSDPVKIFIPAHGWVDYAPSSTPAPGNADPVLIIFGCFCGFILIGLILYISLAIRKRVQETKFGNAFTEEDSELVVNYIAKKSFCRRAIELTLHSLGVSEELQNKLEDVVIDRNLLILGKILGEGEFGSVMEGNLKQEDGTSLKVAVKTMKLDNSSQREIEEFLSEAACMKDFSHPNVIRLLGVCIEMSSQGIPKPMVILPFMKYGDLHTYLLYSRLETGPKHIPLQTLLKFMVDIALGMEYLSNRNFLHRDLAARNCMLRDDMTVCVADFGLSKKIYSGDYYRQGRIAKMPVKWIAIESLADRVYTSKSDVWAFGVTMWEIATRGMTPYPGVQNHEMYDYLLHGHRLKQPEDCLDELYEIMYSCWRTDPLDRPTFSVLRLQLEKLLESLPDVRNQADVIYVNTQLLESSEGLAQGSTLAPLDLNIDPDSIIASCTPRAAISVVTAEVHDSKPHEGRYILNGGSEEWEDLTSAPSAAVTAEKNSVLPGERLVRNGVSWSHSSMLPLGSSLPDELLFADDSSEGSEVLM

[5] = molecular target: Proto-oncogene tyrosine-protein kinase Src (Homo sapiens, UniProt P12931); assay: Selectivity interaction (ProQinase) EUB0000171b SRC
Proto-oncogene tyrosine-protein kinase Src, sequence (P12931 2-536 limits assumed): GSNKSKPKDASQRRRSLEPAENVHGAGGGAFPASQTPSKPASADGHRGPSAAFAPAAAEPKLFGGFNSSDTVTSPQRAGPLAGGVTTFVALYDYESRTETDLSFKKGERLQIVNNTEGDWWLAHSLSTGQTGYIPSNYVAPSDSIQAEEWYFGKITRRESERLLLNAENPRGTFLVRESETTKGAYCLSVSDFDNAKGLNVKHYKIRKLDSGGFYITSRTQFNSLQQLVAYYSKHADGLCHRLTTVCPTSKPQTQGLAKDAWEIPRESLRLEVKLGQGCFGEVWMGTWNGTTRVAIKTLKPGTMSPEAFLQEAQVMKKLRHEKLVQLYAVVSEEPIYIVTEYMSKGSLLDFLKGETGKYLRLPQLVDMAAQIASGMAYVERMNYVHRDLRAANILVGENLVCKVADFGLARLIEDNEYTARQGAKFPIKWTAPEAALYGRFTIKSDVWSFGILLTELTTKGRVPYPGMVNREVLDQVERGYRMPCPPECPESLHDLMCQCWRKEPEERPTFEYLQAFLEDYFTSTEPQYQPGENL

Tyrosine-protein kinase BTK, sequence (Q06187 whole entry): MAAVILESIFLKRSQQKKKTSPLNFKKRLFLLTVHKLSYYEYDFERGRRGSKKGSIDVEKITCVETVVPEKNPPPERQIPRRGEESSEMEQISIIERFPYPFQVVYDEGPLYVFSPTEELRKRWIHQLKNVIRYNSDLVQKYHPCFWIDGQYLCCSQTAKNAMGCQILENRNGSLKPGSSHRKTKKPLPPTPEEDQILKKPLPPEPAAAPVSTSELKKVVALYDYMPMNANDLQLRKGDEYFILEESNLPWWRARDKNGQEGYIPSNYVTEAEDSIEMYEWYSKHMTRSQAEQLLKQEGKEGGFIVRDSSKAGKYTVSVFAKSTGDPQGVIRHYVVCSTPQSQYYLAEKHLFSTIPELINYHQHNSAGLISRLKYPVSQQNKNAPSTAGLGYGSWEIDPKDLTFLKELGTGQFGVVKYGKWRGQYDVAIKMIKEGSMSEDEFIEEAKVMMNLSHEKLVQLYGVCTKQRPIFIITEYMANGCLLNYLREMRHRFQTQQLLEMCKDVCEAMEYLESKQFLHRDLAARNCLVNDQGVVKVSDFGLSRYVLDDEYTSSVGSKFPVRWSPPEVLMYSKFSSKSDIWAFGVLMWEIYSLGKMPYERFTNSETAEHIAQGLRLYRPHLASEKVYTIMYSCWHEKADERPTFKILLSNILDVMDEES

**Q.** How did the % of inhibition [1] turn out when CC[C@@H]1[C@H](F)C(=O)N[C@@H]1COc1nccc2cc(C(N)=O)c(OC)cc12 [ZIMLOVISERTIB] was run?
**A.** The % of inhibition was -4.4%.

**Q.** What about the % of inhibition ([2]; at 0.01 µM) of the same compound?
**A.** The % of inhibition was -51.9%.

**Q.** What about the % of inhibition ([2]; at 0.04 µM) of the same compound?
**A.** The % of inhibition was -22.2%.

**Q.** And the % of inhibition ([2]; at 0.2 µM)?
**A.** The % of inhibition was -29.9%.

**Q.** And the % of inhibition ([2]; at 1 µM)?
**A.** Its % of inhibition is 10%.

**Q.** And the % of inhibition ([2]; at 5 µM)?
**A.** The % of inhibition was 26.2%.

**Q.** How did the % of control [3] turn out when Cc1cc([C@@H](C)Nc2ccccc2C(=O)O)c2nc(N3CCOCC3)cc(=O)n2c1 [AZD-6482] was run?
**A.** Its % of control is 100%.

**Q.** What about the % of control [4] of the same compound?
**A.** The % of control was 100%.

**Q.** For C=CC(=O)Nc1cccc(C(=O)Nc2ccc(Nc3cc(-c4[nH]c(SC)nc4C)ccn3)cc2)c1, which % of control ([5]; at 1 µM) is on record?
**A.** The % of control was 98%.

**Q.** And the % of control ([5]; at 5 µM)?
**A.** The % of control was 86%.
